Source: patent publication EP4342530A1, “SORTILIN MODULATORS” (Insusense ApS, priority 2022, dated 2024)
Like-named read-outs stand apart in the source and are kept apart here.

How the values were obtained:
[1] = Plasma protein binding by rapid equilibrium dialysis, dog plasma; type: in vitro ADME
Procedure: (§1) Plasma protein binding and brain homogenate binding for study compounds in mouse, dog, and rat by rapid equilibrium dialysis
(§2) In practice, unbound fractions in plasma and brain tissue were assessed using rapid equilibrium dialysis in vitro. Separately a pharmacokinetic study was run in vivo whereby a dose of the compound of interest was given at T=0 hours and at subsequent timepoints (eg 0.5, 1 and 4 hours) plasma and separately brain samples were analysed for total concentration of the compound of interest. These total concentrations could then be adjusted with the unbound fraction to give the unbound concentrations in the plasma and brain.
(§3) The test compounds were incubated in plasma and brain homogenate from the relevant species at 37 °C in RED device with inserts (8K MWCO, Thermo scientific) for 4 hours at 5 µM in triplicates. 350 µL of 150 mM phosphate buffered saline (PBS, pH 7.4) was used as the receiver side solutions. […] After 10-minute centrifugation at 13 200 rpm, the sample supernatants were analysed with an LC-MS/MS, to obtain the unbound fraction of the test compound (Fub). The unbound fraction was calculated from the peak area ratios obtained for each matrix: Fub = CPBS /Cplasma; [formula] where CPBS and Cplasma are the analyte concentrations in PBS (receiver) and plasma (donor), respectively. […]

[2] = Kpuu determination in the dog (plasma and CSF time course after oral capsule); type: in vivo, male beagle dog
Procedure: Example 3 was loaded as a solid, Batch No. C2210502, into enteric coated capsule (0#). Fasted male beagle dog was dosed with pentagastrin (0.25 mg/mL and 0.024 mL/kg) at 6 µg/kg by intramuscular (IM) injection at approximately 30 minutes prior to administration of test compound. Capsule containing 20 mg/kg of Example 3 were administered orally and plasma and CSF samples were taken pre-dose, 0.5, 1, 2, 4, 8 12 and 24 hours post dosing and analysed for concentration of Example 3 in analogous fashion to the study above.
Kpuu = AUC0−infcsf/(AUC0−infplasma×(%Fuplasma/100)) [formula] Kpuu = 6414/(23816×(55,5/100)) = 6414/13218 = 0.49 [formula]

[3] = Blood-brain-barrier permeability in mice after IV administration; details: male, CD1 (ICR), mouse, intravenous, 3 mg/kg
Procedure: The compound is administered to the animal in a suitable vehicle at T=0 hours. At 0.5 hours post administration plasma and separately brain are removed, prepared and analysed for total compound concentration.
Temperature: 45 °C Injection Volume: 1.5 µl for brain, 4 µl for plasma Ion Source: ESI+, SRM detection
The unbound partition coefficient (Kpuu) was determined as a ratio between the free compound concentrations in plasma and brain: Kpuu = (Cub,brain)/(Cub,plasma) [formula]
Where Cu,brain = unbound concentration in brain (C × Fub, brain); wherein • C = concentration at steady state; and • Cub,plasma = unbound concentration in plasma (C × Fub).

[4] = Brain homogenate binding by rapid equilibrium dialysis, rat brain; type: in vitro ADME; details: pH 7.4, 37 °C, dilution factor 5, read-out: Unbound (Fu, %)
Procedure: as §1, §2, §3

[5] = male, beagle, CSF, 20 mg/kg oral capsule, read-out: CSF concentration
[6] = male, beagle, plasma, 20 mg/kg oral capsule, read-out: Plasma concentration

CC(C)(C)CC[C@H](NCc1ccc2c(c1)COCC2)C(=O)O [Example 3, (S)-2-((isochroman-7-ylmethyl)amino)-5,5-dimethylhexanoic acid]
%Fuplasma ([1]; dog plasma, as used for the Kpuu calculation): 55%
fraction unbound at 4 h, 5 µM ([1]; pH 7.4, Dog plasma, 5 µM, 4 hours, 37 °C, read-out: Unbound (Fu, %)): 0.555
CSF concentration ([2]; 20 mg/kg oral capsule, 0,5 h): BQL
Plasma concentration ([2]; 20 mg/kg oral capsule, 0,5 h): 1,04 ng/mL
CSF concentration ([2]; 20 mg/kg oral capsule, 1 h): BQL
Plasma concentration ([2]; 20 mg/kg oral capsule, 1 h): 3,20 ng/mL
CSF concentration ([2]; 20 mg/kg oral capsule, 2 h): 13,7 ng/mL
CSF concentration ([2]; 20 mg/kg oral capsule, 24 h): 27,7 ng/mL
Plasma concentration ([2]; 20 mg/kg oral capsule, 24 h): 87,1 ng/mL
AUC(0-inf) ([2]; male, beagle, CSF, 20 mg/kg oral capsule): 6410 ng·h/mL
concentration at 4 h [2, 5]: 745 ng/mL
concentration at 8 h [2, 5]: 698 ng/mL
concentration at 12 h [2, 5]: 196 ng/mL
AUC(0-inf) ([2]; male, beagle, Plasma, 20 mg/kg oral capsule): 23800 ng·h/mL
concentration at 2 h ([2]; male, beagle, plasma, 20 mg/kg oral capsule, 2 h): 370 ng/mL
concentration at 4 h [2, 6]: 5350 ng/mL
concentration at 8 h [2, 6]: 1400 ng/mL
concentration at 12 h [2, 6]: 390 ng/mL
concentration at 0.5 h ([3]; brain): 61.2 ng/g
Kp at 0.5 h ([3]; brain/plasma): 0.21
concentration at 0.5 h ([3]; plasma): 292 ng/mL
fraction unbound at 4 h, 5 µM [4]: 0.371
